This note sets out measurements from patent publication US4652581A, “Tetrahydroindole derivative as medicament for cerebral apoplexy” (Grelan Pharmaceutical Co., Ltd., priority 1983, dated 1987).

Series [1] has as its system hemorrhagic infarction (rat cerebral infarction model). Briefly: Inhibition of hemorrhagic infarction in cerebral infarction model, ISI injection (Test Example 1A). The conditions noted are these: intraperitoneal. Format: in vivo, Sprague Dowley male rats. The protocol: (§1) (A) A cerebral infarction model was constructed by the following procedure. The bilateral common carotid arteries of Sprague Dowley male rats (body weights 300 to 350 g) in which one of the vertebral arteries was occluded by electrocauterization in accordance with the method of W. Pulsinelli et al (Stroke 10, 267, 1979) were uniformly occluded and made repatent, using clamps, at an interval of 1 hour for the first cycle and thereafter at 30-minute intervals for a total of 4 cycles.
After the final establishment of repatency in this test model and on the second day and onwards, 1 ml/100 g body weight of Glyceol ® Injection [a preparation containing 10 weight % of glycerol, the trademark of Chugai Pharmaceutical Co., Ltd., Japan] was intraperitoneally administered twice daily. The test drug ISI was dissolved in Glyceol ® Injection to a concentration of 0.08 weight % and administered in the same manner as Glyceol ® Injection.
In a disease model such as the one used in this experiment, death of animals occurs in many cases as an infarction leads to cerebral edema which compresses the brain stem. Therefore, for the purpose of preventing death due to this cause and ensuring a smooth performance of the experiment, the animals were treated with Glyceol ® Injection which has a relieving effect on cerebral edema.
The isolated brains were fixed in 10% formalin. […]

For series [2] the test system is unchanged. Briefly: Inhibition of hemorrhagic infarction in cerebral infarction model, ISI orally administered (Test Example 1B). The conditions noted are these: oral, twice daily. Format: in vivo, Sprague Dowley male rats. The protocol: as §1
The isolated brains were fixed in 10% formalin. For the assessment of hemorrhagic infarction, paraffin-embedded specimens prepared from three different sections passing through the mid-point between the anterior portion of the frontal lobe and the optic chiasm, the optic chiasm and the posterior portion of the mamillary body were used after H.E. stain.
(B) In the system using the above-mentioned cerebral infarction model, 0.25 ml/100 g body weight of suspension of the test drug ISI in 5% sodium alginate was orally administrated (dose of ISI: 30 mg/kg). To control animals, 0.25 ml/100 g body weight of 5% sodium alginate was orally administered. The administration schedule was twice daily for both groups.
The brains submitted to the study were subjected to the same treatment as above, and assessments were made on paraffin-embedded specimens.

Series [3] has as its system cerebral apoplexy (stroke-prone spontaneously hypertensive rats). Briefly: Effect against cerebral apoplexy in NaCl-loaded stroke-prone spontaneously hypertensive rats (Test Example 2). The format is in vivo. From the text:
Stroke-prone spontaneously hypertensive rats [K. Okamoto et al., Circulation Res. suppl. 34 & 35, 143 (1974)]of 10 weeks aged were fed, in conventional manner, with a 1 weight % aqueous solution of sodium chloride as drinking water [H. Ikeda et al., Europ. J. Pharmacol. 53, 173 (1979)]being employed.
Animals were subjected to periodical observation, three times a day, until the symptom of cerebral apoplexy was manifested in all the animals of the control group. The difference between the control group and the test group in the ranking of the symtoms of cerebral apoplexy manifested was subjected to rank sum test.
In the test group, each of the animals was orally treated every day with ISI dissolved in 1% gum-arabica solution so that the concentration may become 0.06 weight % at a dose of 0.5 ml/100 g body weight twice a day, starting with the sodium chloride loading. In the control group, each of the animals was treated with 1% gum-arabica solution at a dose of 0.5 ml/100 g body weight in a manner similar to that in the test group.
The animals in which the symptom of apoplexy was manifested, after being anesthetized, was treated with intravenous injection of 1% Evans Blue (dosage: 1 ml/kg). After sacrifice by bloodletting, hemorrhage and extravascular extravasation of the dye in the brain and the spinal cord was observed.
With paralysis of the limbs, stereotyped behaviour, an extreme loss of
those animals were counted as those suffering from C.A.: Excitement,
Hyperirritability, Depression, Epileptic symptom, Hemiplegia, Sudden

Series [4] can be described thus: Acute toxicity (LD50 in mice). The settings on record: mouse, in vivo.

Like-named read-outs stand apart in the source and are kept apart here.

The LD50 is the dose expected to kill half of the subjects tested.

With `CC(C)N1CC(O)C2=CC(=NNC(N)=O)C(=O)C=C21` (centres unmarked) [ISI, 1-isopropyl-3-hydroxy-5-semicarbazono-6-oxo-2,3,5,6-tetrahydroindole], the “Number of cases of hemorrhagic infarction” value in series [1] (0.08% ISI in Glyceol injection, 1 ml/100 g, twice daily, up to 7 days, control (Glyceol injection) 6/20) was 1/19; in series [2] (30 mg/kg in 5% sodium alginate, control (sodium alginate) 18/43), 9/41. Besides, in series [1] (ISI in Glyceol injection vs control group), the “inhibitory effect on hemorrhagic infarction (significance versus control)” value is “inhibitory effect on hemorrhagic infarction was obtained in the ISI group at the significance level of 5%”. Besides, the “inhibitory effect on cerebral infarction (significance versus control)” value in series [2] (30 mg/kg, vs control group) is reported as “inhibitory effect on cerebral infarction was obtained in the ISI group at the significance level of 5%”. Moreover, the “Number of animals suffering from C.A., Total” value in series [3] (ISI 3.0 mg/kg, oral twice a day, total, days 20-42 after NaCl loading, control 10/10) is on record as 5/10. Further, the “Number of animals suffering from C.A.” value in series [3] (ISI 3.0 mg/kg, 20 days after NaCl loading, control 0) is reported as 1; in series [3] (ISI 3.0 mg/kg, 21 days after NaCl loading, control 1) it was 0; in series [3] (ISI 3.0 mg/kg, 23 days after NaCl loading, control 1), 0; in series [3] (ISI 3.0 mg/kg, 26 days after NaCl loading, control 1), 0; in series [3] (ISI 3.0 mg/kg, 32 days after NaCl loading, control 1) it was 0; in series [3] (ISI 3.0 mg/kg, 33 days after NaCl loading, control 1), 1. Further, the “Number of animals suffering from C.A.” value in series [3] (ISI 3.0 mg/kg, 34 days after NaCl loading, control 1) was 0; in series [3] (ISI 3.0 mg/kg, 37 days after NaCl loading, control 0), 2; in series [3] (ISI 3.0 mg/kg, 39 days after NaCl loading, control 1), 0; in series [3] (ISI 3.0 mg/kg, 40 days after NaCl loading, control 1), 0; in series [3] (ISI 3.0 mg/kg, 41 days after NaCl loading, control 0) it was 1; in series [3] (ISI 3.0 mg/kg, 42 days after NaCl loading, control 2), 0. The “effect of ISI against cerebral apoplexy (significance versus control)” value in series [3] (oral ISI twice a day, Mann-Whitrey's U-test) worked out at 5% significant difference. The LD50 was 350 mg/kg in series [4] (intravenous, read-out: Acute toxicity LD50, intravenous) and at least 10000 mg/kg in series [4] (oral, read-out: Acute toxicity LD50, oral).
